Ends that are not written are not given here. PEG = not defined here
What was measured:
Format in all cases: cell-based
[1] = system: human prostate cancer cells (22RV1); test: scratch assay, migration of 22RV1 cells; details: 22RV1, 10 μM, 48 hours; control group 25.41 ± 5.01
How it was run: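 22RV1 monolayers (seeded 1-2×10^5 cells/well) were scratched, washed, then given 2% FBS medium with 10 μM polypeptide or PBS, triplicate wells, for 48 h. Migration rate (%) = (original − current scratch width)/original width ×100, from ≥3 images per well.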

[2] = system: human lung squamous carcinoma cells (NCI-H226); test: scratch assay, migration of NCI-H226 cells; details: NCI-H226, 10 μM, 48 hours; control group 65.31 ± 3.19
How it was run: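 A straight scratch was made in confluent NCI-H226 monolayers (1-2×10^5 cells/well). Cells were then kept 48 h in 2% FBS medium with 10 μM polypeptide or PBS control, triplicate wells. Migration rate (%) = (original − current scratch width)/original width ×100, from imaged scratch widths.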

[3] = system: human pharyngeal squamous-cell carcinoma cells (Fadu); test: scratch assay, migration of Fadu cells; details: 10 μM, 48 hours, control group 28.76 ± 4.08
How it was run: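 Confluent Fadu monolayers scratched, then cultured 48 h with 10 μM polypeptide in medium with 2% FBS; PBS control, triplicate wells. Migration rate (%) = (original − current scratch width)/original width × 100, from ≥3 images per well.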

[4] = system: human liver adenocarcinoma cells (SK-HEP-1); test: transwell invasion assay, SK-HEP-1 cells; details: SK-HEP-1 transwell invasion, 10 μM, 24 hours; control group 767 ± 91
How it was run: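 Serum-free SK-HEP-1 cells were seeded in matrigel-coated upper chambers over complete medium. After 4-5 h, peptide was added to the upper chamber at 10 μM final. Following 24 h at 37° C., invaded cells were fixed, crystal violet-stained, imaged and counted.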

[5] = system: human oral epidermoid carcinoma KB cells; test: scratch assay, migration of KB cells; details: 10 μM, 48 hours, control group 54.03 ± 4.21
How it was run: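 Monolayers of KB cells were scratched, washed with PBS, then cultured 48 hours in 2% FBS medium containing test polypeptide (10 μM) or PBS control, in triplicate wells. From images, migration rate (%) = (original − current scratch width)/original width × 100.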

[6] = system: human lung cancer cells (95D); test: scratch assay, migration of 95D cells; details: 10 μM, 48 hours, control group 55.3 ± 3.19
How it was run: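 Confluent 95D monolayers were scratched, washed with PBS and cultured 48 h in 2% FBS medium containing peptide (10 μM) or PBS control, in triplicate wells. Scratch width was measured on images; migration rate (%) = (original width − current width)/original width × 100.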

[7] = system: human thyroid cancer cells (FRO); test: scratch assay, migration of FRO cells; details: 10 μM, 48 hours, control group 60.34 ± 8.32
How it was run: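 FRO monolayers were scratched, washed, and cultured 48 h in 2% FBS medium with polypeptide derivatives at 10 μM or PBS control, three wells per group. Migration rate (%) = (original − current scratch width)/original width × 100, measured from images.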

[8] = system: human liver adenocarcinoma cells (SK-HEP-1); test: transwell migration assay, SK-HEP-1 cells; details: SK-HEP-1 transwell migration, 10 μM, 24 hours; control group 1 782 ± 108, control group 2 768 ± 86
How it was run: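 SK-HEP-1 cells in serum-free medium seeded in upper transwell chamber (2-3×10^5 cells/mL) over complete medium; after 4-5 h at 37 °C, 5% CO2, peptide added at 10 μM final in upper chamber. After 24 h, migrated cells fixed in methanol, crystal-violet stained, imaged and counted.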

Substance	Migration rate (%) (mean ± SD, P) [1]	Migration rate (%) (mean ± SD, P) [2]	Migration rate (%) (mean ± SD, P) [3]	Number of cells (mean ± SD, P), invaded cells [4]	Migration rate (%) (mean ± SD, P) [5]	Migration rate (%) (mean ± SD, P) [6]	Migration rate (%) (mean ± SD, P) [7]	Number of cells (mean ± SD, P), migrated cells [8]
N35: SEQ ID NO: 1 with A15R, addition of one amino acid and PEG modification at the carboxyl terminal (YRVRFLAKENVTQDREDNC-{PEG}; reading uncertain)	7.13 ± 2.23,** %	42.47 ± 5.12,** %	8.71 ± 1.79,*** %	338 ± 43,***	6.07 ± 2.30,*** %	22.47 ± 5.12,*** %	8.04 ± 2.90,*** %	315 ± 36,***
N37: SEQ ID NO: 1 with addition of two amino acids to the carboxyl terminal and PEG modification at the amino terminal ({PEG}-YRVRFLAKENVTQDAEDNCT; reading uncertain)	4.86 ± 1.91,** %	11.33 ± 9.49,*** %	15.89 ± 3.88,* %	233 ± 13,****	24.48 ± 2.51,* %	27.76 ± 6.51,** %	36.47 ± 5.69,* %	84 ± 7,****
N38: SEQ ID NO: 1 with one amino acid added at each terminal and PEG modification at the carboxyl terminal (FYRVRFLAKENVTQDAEDNC-{PEG}; reading uncertain)	7.73 ± 1.58,** %	47.66 ± 6.39,* %	18.18 ± 3.61,* %	249 ± 42,****	15.57 ± 3.65,* %	37.60 ± 3.67,** %	19.23 ± 7.52,** %	380 ± 32,***
N39: SEQ ID NO: 1 with addition of two amino acids and PEG modification at the carboxyl terminal (YRVRFLAKENVTQDAEDNTC-{PEG}; reading uncertain)	4.21 ± 2.81,** %	21.82 ± 5.54,*** %	18.48 ± 5.74,* %	88 ± 25,****	9.21 ± 4.20,*** %	43.19 ± 4.82,* %	36.51 ± 4.36,* %	261 ± 25,****
N40: SEQ ID NO: 1 with deletion of positions 1-5 and 15-18, PEG at the amino terminal, two amino acids added at the carboxyl terminal ({PEG}-LAKENVTQDRC; reading uncertain)	6.65 ± 2.54,** %	17.00 ± 6.49,*** %	10.25 ± 2.76,** %	123 ± 26,****	6.47 ± 4.39,*** %	36.23 ± 5.05,** %	39.96 ± 4.95,* %	290 ± 33,****
N41: SEQ ID NO: 1 with addition of two amino acids at the amino terminal, deletion of position 18, PEG at the carboxyl terminal (FRYRVRFLAKENVTQDAED-{PEG}; reading uncertain)	7.83 ± 1.84,** %	15.30 ± 8.69,*** %	12.00 ± 4.73,** %	58 ± 12,****	20.01 ± 2.07,** %	32.62 ± 3.79,** %	40.10 ± 2.73,* %	280 ± 24,****
N42: SEQ ID NO: 1 with deletion of positions 1-5 and 15-18, PEG at the amino terminal, one amino acid added at the carboxyl terminal ({PEG}-LAKENVTQDR; reading uncertain)	5.89 ± 1.02,** %	17.46 ± 6.33,*** %	18.63 ± 2.79,* %	149 ± 29,****	8.92 ± 2.65,*** %	35.42 ± 4.97,** %	25.71 ± 2.79,** %	106 ± 17,****
N43: SEQ ID NO: 1 with addition of one amino acid at the amino terminal, deletion of position 18, PEG at the carboxyl terminal (RYRVRFLAKENVTQDAED-{PEG}; reading uncertain)	6.57 ± 1.35,** %	16.38 ± 7.71,*** %	10.04 ± 2.50,** %	107 ± 16,****	11.22 ± 1.74,*** %	30.38 ± 4.71,** %	19.78 ± 4.60,** %	157 ± 29,****
N45: SEQ ID NO: 1 with V11R, deletion of positions 1-5 and 15-18, PEG modification at the carboxyl terminal (LAKENRTQD-{PEG}; reading uncertain)	11.63 ± 2.82,* %	23.76 ± 5.38,*** %	9.34 ± 2.86,*** %	155 ± 10,****	8.79 ± 2.28,*** %	33.76 ± 5.38,** %	24.22 ± 6.27,** %	162 ± 15,****
N47: SEQ ID NO: 1 with N18R, deletion of positions 1-2, one amino acid added and PEG at the carboxyl terminal (VRFLAKENVTQDAEDRC-{PEG}; reading uncertain)	5.92 ± 2.53,** %	53.86 ± 3.61,* %	10.27 ± 4.61,*** %	85 ± 16,****	8.82 ± 1.89,*** %	23.86 ± 3.61,*** %	16.47 ± 3.83,** %	179 ± 17,****

Reference: patent US20220280594A1, “APPLICATION OF POLYPEPTIDE OR DERIVATIVE THEREOF” (CHENGDU HUITAI BIOMEDICINE CO., LTD., priority 2019, published 2022)
